Laboratory results as given in article PMC10060004, “A Self-Immolative Linker for the pH-Responsive Release of Amides” (Molecules, 2023).

Assays:
Stability test in water = assay type: physicochemical; conditions: for H2O, percentage of unmodified compound: after 48 h of incubation; for half-life: time before half of the drug is degraded, read-out: H2O, t1/2
Protocol: (§1) General procedure for release experiments. A 10 mM stock-solution of compounds 8a, 8b, 10, 15, 17, and 18 was prepared in DMSO and diluted in the corresponding buffers to obtain a 1 mM solution. In the case of compound 16, the 10 mM stock-solution was diluted in the corresponding buffer and additionally diluted with DMSO to obtain a final 0.67 mM solution in buffer/H2O/DMSO. For analysis at pH 7.4 and 6, phosphate buffers of 0.1 M were used (KH2PO4/K2HPO4). For pH 5.5 and 4.5, acetate buffer of 0.1 M was used (CH3COONa/CH3COOH). All compounds were mixed with the buffers at 25 °C and further incubated at 37 °C. HPLC analyses were carried out following the method reported in SI every 1–3 h up to 6 h and every 6 h up to 48 h.

[1] = Stability in solution at pH 7.4 (PBS / phosphate buffer), HPLC; assay type: physicochemical; conditions: for pH 7.4, percentage of unmodified compound / pH 7.4, t1/2: pH 7.4 solution; for pH 7.4, percentage of unmodified compound: after 48 h of incubation; for pH 7.4, t1/2: time before half of the drug is degraded; for stability in solution at pH 7.4: PBS solution, pH 7.4, 48 h
Protocol: as §1

[2] = Stability in plasma experiments (pooled human plasma, UV/LC-MS); assay type: in vitro ADME; conditions: for Plasma, percentage of unmodified compound: 37 °C, after 24 h of incubation; for half-life at 100 µM: pooled human plasma, pH 7.4, 37 °C, time before half of the drug is degraded, read-out: Plasma, t1/2
Protocol: Stability in plasma experiments. Pooled human plasma, purchased from Merck (0.9 mL, […]); hepes buffer (1.0 mL, 25 mM, NaCl 140 mM, pH 7.4); and tested compound dissolved in DMSO (100 µL, 2.0 mM) were mixed in a test tube incubated at 37 °C under continuous mechanical agitation. At set time points (0.0, 0.25, 0.50, 1.0, 3.0, 5.0, 8.0, and 24.0 h), samples of 100 µL were taken, mixed with 400 µL of cold acetonitrile, and centrifuged at 5000 rpm for 15 min. The supernatant was collected and analysed by UV/LC-MS to monitor the amount of unmodified compound. LC analyses of plasma stability tests were performed using Agilent 1100 LC/MSD VL system (G1946C) (Agilent Technologies, Palo Alto, CA, USA) constituting a vacuum solvent degassing unit, a binary high-pressure gradient pump, an 1100 series UV detector, and an 1100 MSD model VL benchtop mass spectrometer. A MSD single-quadrupole instrument was equipped with the orthogonal spray API-ES (Agilent Technologies, Palo Alto, CA, USA). The pressure of the nebulizing gas and the flow of the drying gas (nitrogen used for both) were set at 40 psi and 9 L/min, respectively. The capillary voltage, fragmentation voltage, and vaporization temperature were 3000 V, 10 V, and 350 °C, respectively. MSD was used in the positive and negative ion mode. Spectra were acquired over the scan range m/z 100–2000 using a step size of 0.1. Chromatographic analyses were performed using a Phenomenex Kinetex EVO C18-100Å (150 × 4.6 mm, 5 μm particle size) at room temperature, at a flow rate of 0.6 mL/min, injection volume of 10 μL, operating with a gradient elution of A: water (H2O) and B: acetonitrile (ACN). Both solvents were acidified with 0.1% v/v of formic acid. UV detection was monitored at 254 nm. The analysis started with 0% of B, then B was increased to 80% (from t = 0 to t = 20 min), then kept at 80% (from t = 20 to t = 25 min), and finally returned to 0% of eluent B in 5.0 min.

[3] = Release experiments (hydrolysis / payload release) in acidic acetate buffer, HPLC; assay type: physicochemical; conditions: for peak intensity of the conjugate at pH 4.5: pH 4.5, HPLC
Protocol: as §1

Row | SMILES | H2O, percentage of unmodified compound (Stability test in water) [%] | half-life (Stability test in water) [h] | pH 7.4, percentage of unmodified compound [1] [%] | pH 7.4, t1/2 [1] [h] | Plasma, percentage of unmodified compound [2] [%] | half-life at 100 µM [2] [h] | stability in solution at pH 7.4 [1] | peak intensity of the conjugate at pH 4.5 [3] | drug released at pH 5.5 after 48 h ([3]; pH 5.5, after 48 h) | rate of release at pH 5.5 (qualitative) ([3]; pH 5.5, compared with the other derivatives) | free Enzalutamide 9 detected at pH 4.5 ([3]; pH 4.5, 48 h, 37 °C) [%] | amide 9 released at pH 5.5 ([3]; pH 5.5, after 48 h at 37 °C)
1 | C#CCOc1cc(COC(=O)N(C[C@H]2CN(c3ccc(N4CCOCC4)c(F)c3)C(=O)O2)C(C)=O)cc2c1OC(OCC)O2 (stereo partly drawn) [Compound 15, (2-Ethoxy-7-(prop-2-yn-1-yloxy)benzo[d][1,3]dioxol-5-yl)methyl acetyl(((R)-3-(3-fluoro-4-morpholinophenyl)-2-oxooxazolidin-5-yl)methyl)carbamate] | 99 | > 48 | 94 | > 48 | 95 | > 24 |  |  |  |  |  | 
2 | C#CCOc1cc(COC(=O)N(C)C(=O)c2ccc(N3C(=S)N(c4ccc(C#N)c(C(F)(F)F)c4)C(=O)C3(C)C)cc2F)cc2c1OC(OCC)O2 (stereo not shown) [Compound 16, (2-Ethoxy-7-(prop-2-yn-1-yloxy)benzo[d][1,3]dioxol-5-yl)methyl (4-(3-(4-cyano-3-(trifluoromethyl)phenyl)-5,5-dimethyl-4-oxo-2-thioxoimidazolidin-1-yl)-2-fluorobenzoyl)(methyl)carbamate] | 99 | > 48 | 95 | > 48 | 89 | > 24 |  |  |  |  |  | 
3 | C#CCOc1cc(COC(=O)N(C)C(=O)c2ccc(N3C(=S)N(c4ccc(C#N)c(C(F)(F)F)c4)C(=O)C3(C)C)cc2F)ccc1OCOC [Compound 10, 4-(Methoxymethoxy)-3-(prop-2-yn-1-yloxy)benzyl (4-(3-(4-cyano-3-(trifluoromethyl)-phenyl)-5,5-dimethyl-4-oxo-2-thioxoimidazolidin-1-yl)-2-fluorobenzoyl)(methyl)-carbamate] |  |  |  |  |  |  | stable | decreased |  |  | 40 | only a small amount
4 | C#CCOc1cc(COC(=O)NS(=O)(=O)c2ccc(C)cc2)cc2c1OC(OCC)O2 (stereo not shown) [Compound 18, (2-Ethoxy-7-(prop-2-yn-1-yloxy)benzo[d][1,3]dioxol-5-yl)methyl tosylcarbamate] | 99 | > 48 | 92 | > 48 | 84 | > 24 |  |  | no more than 80% | faster |  | 

Continued, in another order:

Row | H2O, percentage of unmodified compound (Stability test in water) [%] | half-life (Stability test in water) [h] | pH 7.4, percentage of unmodified compound [1] [%] | pH 7.4, t1/2 [1] [h] | Plasma, percentage of unmodified compound [2] [%] | half-life at 100 µM [2] [h] | stability in solution at pH 7.4 [1] | peak intensity of the conjugate at pH 4.5 [3] | drug released at pH 5.5 after 48 h ([3]; pH 5.5, after 48 h) | rate of release at pH 5.5 (qualitative) ([3]; pH 5.5, compared with the other derivatives) | SMILES | free Enzalutamide 9 detected at pH 4.5 ([3]; pH 4.5, 48 h, 37 °C) [%] | amide 9 released at pH 5.5 ([3]; pH 5.5, after 48 h at 37 °C)
5 |  |  |  |  |  |  | stable | decreased |  |  | C#CCOc1cc(COC(=O)N(C[C@H]2CN(c3ccc(N4CCOCC4)c(F)c3)C(=O)O2)C(C)=O)ccc1OCOC [Compound 8a, 4-(Methoxymethoxy)-3-(prop-2-yn-1-yloxy)benzyl (R)-acetyl((3-(3-fluoro-4-morpholino-phenyl)-2-oxooxazolidin-5-yl)methyl)carbamate] |  | 
6 |  |  |  |  |  |  | stable | decreased |  |  | C#CCOc1cc(COC(=O)N(C[C@@H]2CN(c3ccc(N4CCOCC4)c(F)c3)C(=O)O2)C(C)=O)ccc1OCOCCOC [Compound 8b, {[3-(3-Fluoro-4-morpholinophenyl)-2-oxo-1,3-oxazolidin-5-yl]methyl}acetylamino-{4-[(2-methoxyethoxy)methoxy]-3-(2-propynyloxy)-phenyl}methylformylate] |  | 
